Results published in ChEMBL document CHEMBL4828725 (Eur J Med Chem, 2021).

How the values were obtained:
[1] = biological target: Alpha-galactosidase (Coffea arabica) (UniProt Q42656); assay: Inhibition of coffee beans alpha-galactosidase using p-nitrophenyl glycoside as substrate assessed as release of p-nitrophenol at 1000 uM measured by spectrometric assay relative to control
[2] = Inhibition of snail beta-mannosidase using p-nitrophenyl glycoside as substrate assessed as release of p-nitrophenol measured by spectrometric assay; set-up: species or system Helix pomatia
[3] = Inhibition of bovine liver beta-glucosidase using p-nitrophenyl glycoside as substrate assessed as release of p-nitrophenol measured by spectrometric assay; set-up: species or system Bos taurus
Bos taurus [4] = species on record: Bos taurus; assay: Inhibition of bovine liver beta-galactosidase using p-nitrophenyl glycoside as substrate assessed as release of p-nitrophenol at 1000 uM measured by spectrometric assay relative to control
[5] = biological target: T1, Tissue alpha-L-fucosidase (Bos taurus) (UniProt Q2KIM0); assay: Inhibition of bovine kidney alpha-L-fucosidase using p-nitrophenyl glycoside as substrate assessed as release of p-nitrophenol at 1000 uM measured by spectrometric assay relative to control; format: tissue-based
T1 sequence (whole entry): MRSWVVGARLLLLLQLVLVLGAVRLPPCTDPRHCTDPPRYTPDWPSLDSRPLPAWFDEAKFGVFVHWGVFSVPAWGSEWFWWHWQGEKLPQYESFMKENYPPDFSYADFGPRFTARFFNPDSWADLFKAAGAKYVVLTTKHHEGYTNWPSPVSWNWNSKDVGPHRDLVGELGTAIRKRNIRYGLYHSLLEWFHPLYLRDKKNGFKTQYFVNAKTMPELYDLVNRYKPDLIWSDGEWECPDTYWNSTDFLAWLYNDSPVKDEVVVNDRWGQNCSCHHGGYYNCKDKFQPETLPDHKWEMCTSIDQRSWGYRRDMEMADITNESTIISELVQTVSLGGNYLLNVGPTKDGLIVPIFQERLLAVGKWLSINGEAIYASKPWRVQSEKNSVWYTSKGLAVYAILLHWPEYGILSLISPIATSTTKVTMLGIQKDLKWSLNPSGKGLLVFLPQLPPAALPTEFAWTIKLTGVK

Prunus dulcis = assay: Inhibition of almond beta-glucosidase using p-nitrophenyl glycoside as substrate assessed as release of p-nitrophenol at 1000 uM measured by spectrometric assay relative to control
Helix pomatia = assay: Inhibition of snail beta-mannosidase using p-nitrophenyl glycoside as substrate assessed as release of p-nitrophenol at 1000 uM measured by spectrometric assay relative to control
[6] = Inhibition of beta-glucosidase (unknown origin); set-up: species or system Homo sapiens
[7] = Inhibition of bovine liver beta-galactosidase using p-nitrophenyl glycoside as substrate assessed as release of p-nitrophenol measured by spectrometric assay; format: tissue-based, Bos taurus
[8] = Inhibition of rat intestinal maltase using maltose as substrate assessed as release of D-glucose measured by spectrometric assay
[9] = biological target: T2, Alpha-mannosidase (Canavalia ensiformis) (UniProt C0HJB3); assay: Inhibition of jack bean alpha-mannosidase using p-nitrophenyl glycoside as substrate assessed as release of p-nitrophenol at 1000 uM measured by spectrometric assay relative to control
T2 sequence (whole entry): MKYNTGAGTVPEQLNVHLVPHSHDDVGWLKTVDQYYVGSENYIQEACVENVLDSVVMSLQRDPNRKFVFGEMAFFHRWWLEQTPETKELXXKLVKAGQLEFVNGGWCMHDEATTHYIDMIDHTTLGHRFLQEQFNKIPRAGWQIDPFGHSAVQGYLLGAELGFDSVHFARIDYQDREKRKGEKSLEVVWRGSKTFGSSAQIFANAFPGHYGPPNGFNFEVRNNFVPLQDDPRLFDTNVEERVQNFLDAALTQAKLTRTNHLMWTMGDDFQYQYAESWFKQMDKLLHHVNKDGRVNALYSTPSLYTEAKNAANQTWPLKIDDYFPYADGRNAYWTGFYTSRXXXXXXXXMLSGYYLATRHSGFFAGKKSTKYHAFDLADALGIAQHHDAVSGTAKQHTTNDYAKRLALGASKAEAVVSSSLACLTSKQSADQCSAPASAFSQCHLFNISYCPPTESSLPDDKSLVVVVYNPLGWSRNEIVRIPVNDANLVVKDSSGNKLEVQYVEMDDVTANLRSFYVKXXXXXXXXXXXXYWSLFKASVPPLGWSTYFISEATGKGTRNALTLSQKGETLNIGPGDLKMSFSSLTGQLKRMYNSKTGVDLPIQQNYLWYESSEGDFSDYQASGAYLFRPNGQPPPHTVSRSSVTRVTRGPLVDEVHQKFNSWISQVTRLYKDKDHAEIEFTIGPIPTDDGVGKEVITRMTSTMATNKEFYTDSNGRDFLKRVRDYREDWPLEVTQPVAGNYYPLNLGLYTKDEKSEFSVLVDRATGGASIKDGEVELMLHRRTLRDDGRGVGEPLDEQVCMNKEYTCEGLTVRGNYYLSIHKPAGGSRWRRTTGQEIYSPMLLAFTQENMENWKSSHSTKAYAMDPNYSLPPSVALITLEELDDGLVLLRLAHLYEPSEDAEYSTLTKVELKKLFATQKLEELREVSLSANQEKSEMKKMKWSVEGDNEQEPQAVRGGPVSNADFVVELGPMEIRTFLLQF

[10] = Inhibition of Penicillium decumbens alpha-L-rhamnosidase using p-nitrophenyl glycoside as substrate assessed as release of p-nitrophenol measured by spectrometric assay
[11] = Inhibition of porcine kidney alpha-trehalase using p-nitrophenyl glycoside as substrate assessed as release of p-nitrophenol measured by spectrometric assay; set-up: species or system Sus scrofa; conditions: read-out: IC50
Alpha-galactosidase = Alpha-galactosidase (Coffea arabica, UniProt Q42656); assay: Inhibition of coffee beans alpha-galactosidase using p-nitrophenyl glycoside as substrate assessed as release of p-nitrophenol measured by spectrometric assay
Chain of Alpha-galactosidase (Q42656 whole entry): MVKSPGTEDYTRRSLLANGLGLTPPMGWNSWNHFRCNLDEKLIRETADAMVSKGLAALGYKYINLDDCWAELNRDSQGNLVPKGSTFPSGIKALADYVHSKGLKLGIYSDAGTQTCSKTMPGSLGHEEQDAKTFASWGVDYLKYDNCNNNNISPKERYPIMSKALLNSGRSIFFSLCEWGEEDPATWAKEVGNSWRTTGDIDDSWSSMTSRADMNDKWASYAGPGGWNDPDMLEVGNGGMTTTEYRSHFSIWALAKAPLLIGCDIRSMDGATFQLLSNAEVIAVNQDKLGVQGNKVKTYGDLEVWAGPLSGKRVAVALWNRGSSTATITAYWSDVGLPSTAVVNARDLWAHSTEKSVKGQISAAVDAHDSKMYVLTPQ

Beta-glucuronidase = Beta-glucuronidase (Escherichia coli (strain K12), UniProt P05804); assay: Inhibition of Escherichia coli beta-glucuronidase using p-nitrophenyl glycoside as substrate assessed as release of p-nitrophenol measured by spectrometric assay
Chain of Beta-glucuronidase (P05804 whole entry): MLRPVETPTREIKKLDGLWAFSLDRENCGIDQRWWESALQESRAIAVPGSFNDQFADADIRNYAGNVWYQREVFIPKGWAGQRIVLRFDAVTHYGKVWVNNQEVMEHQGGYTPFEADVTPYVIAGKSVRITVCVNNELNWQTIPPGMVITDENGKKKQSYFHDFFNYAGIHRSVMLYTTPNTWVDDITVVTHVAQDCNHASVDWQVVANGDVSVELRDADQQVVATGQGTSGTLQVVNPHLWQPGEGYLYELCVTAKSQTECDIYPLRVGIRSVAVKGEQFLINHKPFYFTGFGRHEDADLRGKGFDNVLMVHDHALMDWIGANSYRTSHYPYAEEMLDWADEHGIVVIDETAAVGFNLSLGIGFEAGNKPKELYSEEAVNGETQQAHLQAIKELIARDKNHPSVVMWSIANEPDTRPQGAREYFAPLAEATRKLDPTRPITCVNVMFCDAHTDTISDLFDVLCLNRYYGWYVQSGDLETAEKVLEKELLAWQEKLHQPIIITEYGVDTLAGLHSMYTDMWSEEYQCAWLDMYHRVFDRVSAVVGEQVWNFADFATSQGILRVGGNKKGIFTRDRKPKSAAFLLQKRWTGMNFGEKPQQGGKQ

Bos taurus [12] = species on record: Bos taurus; assay: Inhibition of bovine liver beta-glucosidase using p-nitrophenyl glycoside as substrate assessed as release of p-nitrophenol at 1000 uM measured by spectrometric assay relative to control; format: tissue-based
[13] = biological target: T3, Tissue alpha-L-fucosidase (Bos taurus, UniProt Q2KIM0); assay: Inhibition of bovine kidney alpha-L-fucosidase using p-nitrophenyl glycoside as substrate assessed as release of p-nitrophenol measured by spectrometric assay
T3 sequence (Q2KIM0 whole entry): T1 sequence (whole entry)

[14] = Inhibition of Aspergillus niger amyloglucosidase using p-nitrophenyl glycoside as substrate assessed as release of p-nitrophenol measured by spectrometric assay
[15] = Inhibition of almond beta-glucosidase using p-nitrophenyl glycoside as substrate assessed as release of p-nitrophenol measured by spectrometric assay; set-up: species or system Prunus dulcis
[16] = Inhibition of jack bean alpha-mannosidase using p-nitrophenyl glycoside as substrate assessed as release of p-nitrophenol measured by spectrometric assay; set-up: species or system Canavalia ensiformis
[17] = biological target: Beta-glucuronidase (Escherichia coli (strain K12)) (UniProt P05804); assay: Inhibition of Escherichia coli beta-glucuronidase using p-nitrophenyl glycoside as substrate assessed as release of p-nitrophenol at 1000 uM measured by spectrometric assay relative to control
Chain of Beta-glucuronidase (Escherichia coli (strain K12)) (P05804 whole entry, looked up): as the sequence (P05804 whole entry) above

[18] = Inhibition of rice alpha-glucosidase using p-nitrophenyl glycoside as substrate assessed as release of p-nitrophenol measured by spectrometric assay; set-up: species or system Oryza sativa; conditions: read-out: IC50
Penicillium decumbens = assay: Inhibition of Penicillium decumbens alpha-L-rhamnosidase using p-nitrophenyl glycoside as substrate assessed as release of p-nitrophenol at 1000 uM measured by spectrometric assay relative to control
[19] = biological target: T4, Sucrase-isomaltase, intestinal (Rattus norvegicus, UniProt P23739); assay: Inhibition of rat intestinal sucrase using p-nitrophenyl glycoside as substrate assessed as release of p-nitrophenol measured by spectrometric assay; conditions: read-out: IC50
T4 sequence (P23739 1-1013 limits assumed): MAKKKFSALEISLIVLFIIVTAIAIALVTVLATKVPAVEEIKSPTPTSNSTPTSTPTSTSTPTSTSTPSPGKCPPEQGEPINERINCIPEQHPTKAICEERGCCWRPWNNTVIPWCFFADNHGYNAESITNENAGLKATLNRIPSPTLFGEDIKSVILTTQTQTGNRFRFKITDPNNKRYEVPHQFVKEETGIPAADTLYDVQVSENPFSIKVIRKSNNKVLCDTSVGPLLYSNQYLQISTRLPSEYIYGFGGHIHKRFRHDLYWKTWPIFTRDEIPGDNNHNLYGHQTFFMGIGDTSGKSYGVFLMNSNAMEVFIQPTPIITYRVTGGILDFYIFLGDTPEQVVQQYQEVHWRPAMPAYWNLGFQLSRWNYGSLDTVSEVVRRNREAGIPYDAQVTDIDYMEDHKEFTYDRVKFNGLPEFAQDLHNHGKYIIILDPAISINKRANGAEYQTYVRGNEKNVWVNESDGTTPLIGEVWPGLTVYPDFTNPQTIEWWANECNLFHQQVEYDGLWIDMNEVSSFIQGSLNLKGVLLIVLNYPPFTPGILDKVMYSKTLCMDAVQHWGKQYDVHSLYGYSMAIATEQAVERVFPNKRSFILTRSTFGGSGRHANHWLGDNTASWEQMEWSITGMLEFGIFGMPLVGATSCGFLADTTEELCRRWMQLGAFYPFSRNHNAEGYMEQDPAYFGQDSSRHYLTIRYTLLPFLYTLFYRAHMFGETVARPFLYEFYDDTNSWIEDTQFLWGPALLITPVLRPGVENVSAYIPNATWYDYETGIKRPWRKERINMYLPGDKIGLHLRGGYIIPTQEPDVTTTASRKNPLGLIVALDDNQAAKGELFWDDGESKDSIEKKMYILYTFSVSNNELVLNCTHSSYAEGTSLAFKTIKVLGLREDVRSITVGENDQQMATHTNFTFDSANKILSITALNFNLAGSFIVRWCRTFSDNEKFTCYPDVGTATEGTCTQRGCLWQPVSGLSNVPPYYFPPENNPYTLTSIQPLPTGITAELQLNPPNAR
T4 sequence (P23739 1014-1841 limits assumed): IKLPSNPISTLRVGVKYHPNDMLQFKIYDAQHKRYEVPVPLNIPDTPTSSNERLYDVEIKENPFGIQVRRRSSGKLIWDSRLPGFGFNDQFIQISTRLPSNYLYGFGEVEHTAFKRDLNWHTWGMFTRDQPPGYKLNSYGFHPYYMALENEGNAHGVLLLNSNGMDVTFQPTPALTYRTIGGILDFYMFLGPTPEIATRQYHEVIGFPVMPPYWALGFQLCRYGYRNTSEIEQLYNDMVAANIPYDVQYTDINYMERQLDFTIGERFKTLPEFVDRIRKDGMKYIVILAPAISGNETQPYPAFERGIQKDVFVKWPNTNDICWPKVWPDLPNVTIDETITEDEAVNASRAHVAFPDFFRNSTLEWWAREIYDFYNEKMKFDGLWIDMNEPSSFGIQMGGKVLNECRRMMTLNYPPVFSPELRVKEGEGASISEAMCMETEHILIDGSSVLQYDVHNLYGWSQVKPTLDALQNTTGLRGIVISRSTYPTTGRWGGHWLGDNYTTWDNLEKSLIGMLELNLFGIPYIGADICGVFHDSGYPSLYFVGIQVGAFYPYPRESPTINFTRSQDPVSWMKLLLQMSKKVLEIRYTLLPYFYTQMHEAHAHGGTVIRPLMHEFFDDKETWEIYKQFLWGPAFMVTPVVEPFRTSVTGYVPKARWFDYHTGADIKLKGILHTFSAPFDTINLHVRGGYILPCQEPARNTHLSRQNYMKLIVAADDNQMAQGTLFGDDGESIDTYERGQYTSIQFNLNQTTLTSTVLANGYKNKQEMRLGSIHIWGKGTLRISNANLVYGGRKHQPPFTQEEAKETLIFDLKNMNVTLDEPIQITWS

[20] = biological target: T4, Sucrase-isomaltase, intestinal; assay: Inhibition of rat intestinal isomaltase using p-nitrophenyl glycoside as substrate assessed as release of p-nitrophenol measured by spectrometric assay; conditions: read-out: IC50
Maltase-glucoamylase = Maltase-glucoamylase (Homo sapiens, UniProt O43451); assay: Inhibition of human alpha-glucosidase
Aspergillus niger = assay: Inhibition of Aspergillus niger amyloglucosidase using p-nitrophenyl glycoside as substrate assessed as release of p-nitrophenol at 1000 uM measured by spectrometric assay relative to control

Chain of Alpha-galactosidase (Coffea arabica) (Q42656 16-378 limits assumed): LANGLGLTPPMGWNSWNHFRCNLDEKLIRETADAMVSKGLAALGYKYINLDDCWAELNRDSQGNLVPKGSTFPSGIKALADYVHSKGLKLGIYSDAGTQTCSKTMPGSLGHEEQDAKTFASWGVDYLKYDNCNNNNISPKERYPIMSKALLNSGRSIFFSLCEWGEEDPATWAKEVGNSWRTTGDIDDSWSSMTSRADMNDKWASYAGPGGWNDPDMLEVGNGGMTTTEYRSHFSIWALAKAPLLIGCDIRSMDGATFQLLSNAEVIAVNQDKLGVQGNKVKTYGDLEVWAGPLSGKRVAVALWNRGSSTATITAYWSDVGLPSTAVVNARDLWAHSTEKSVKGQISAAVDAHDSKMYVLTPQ

Structure (SMILES) | IC50 [2] | IC50 [3] | inhibition (Bos taurus [4]) [%] | inhibition [5] [%] | inhibition (Prunus dulcis) [%] | inhibition (Helix pomatia) [%] | IC50 [7] | IC50 [8] [nM] | inhibition [9] [%] | IC50 [10] | IC50 [11] [nM] | IC50 (Beta-glucuronidase) | inhibition (Bos taurus [12]) [%] | IC50 [13] | IC50 [15] | IC50 [16] | inhibition [17] [%] | IC50 [18] [nM] | inhibition (Penicillium decumbens) [%] | further results
OC[C@H]1NC[C@H](O)[C@@H](O)[C@@H]1O [DUVOGLUSTAT] | Not Active | Not Active | 0 | 1 | 12.1 | 4.8 | Not Active | 120 | 17.4 | Not Active | 48000 | Not Active | 4.6 | Not Active | Not Active | Not Active | 0.8 | 440 | 45.6 | inhibition [1]: 13.7%; IC50 [6]: 270 nM; IC50 (Alpha-galactosidase): Not Active; IC50 ([14]; read-out: IC50): 763000 nM
C[C@]1(CO)NC[C@H](O)[C@@H](O)[C@@H]1O.Cl | Not Active | Not Active | 11.9 | 0 | 6.7 | 2 | Not Active | 53 | 2.1 | Not Active | 42000 | Not Active | 9.5 | Not Active | Not Active | Not Active | 0 | 15.5 | 2.4 | IC50 [19]: 200 nM; IC50 [20]: 960 nM; IC50 (Maltase-glucoamylase): 1000 nM; IC50 (Alpha-galactosidase; read-out: IC50): 7500 nM; IC50 [14]: Not Active; inhibition (Aspergillus niger): 8%
